US20240123036A1, “COMPOSITIONS AND METHODS FOR THE TREATMENT OF GRAFT VERSUS HOST DISEASE” (VectivBio AG, priority 2021, published 2024)
Where two headings read alike, the source gives them in different places. Square brackets hold non-standard residues; d marks the D form. Peptide text beside a SMILES is read from it. ξ: configuration not given here. Ile(3ξ) = CCC(C)[C@H](N)C(=O)O; Thr(3ξ) = CC(O)[C@H](N)C(=O)O; Nle = CCCC[C@H](N)C(=O)O

Key:
[1] = system: hPBMC engraftment in NOG mice; assay: Engraftment of human PBMC in total-body-irradiated NOG mice (Example 2, first experiment); type: in vivo, mouse
Description: Engraftment rate was determined through CD45 expression in blood, bone marrow and spleen.

[2] = system: chemotherapy-induced gastrointestinal damage in Balb/c mice; assay: Chemotherapy-induced (cytarabine or melphalan) intestinal damage in Balb/c mice (Example 3); type: in vivo, mouse
Description: In a first experiment, 4 groups of Balb/c mice: (A) vehicle only; (B) cytarabine on Days 5-9, no apraglutide given; (C) cytarabine on Days 5-9; concomitant apraglutide on Days 5-18; (D) cytarabine on Days 5-9; pre-treatment apraglutide on Days 1, 3, and continued as concomitant treatment on Days 5, 8, 11, 14, and 17. Treatment groups were dosed with 30 mg/kg cytarabine and/or apraglutide 3.3 mg/kg.
In a second experiment, 3 treatment groups of Balb/c mice: (A) vehicle only; (B) melphalan on Day 9, no apraglutide; (C) melphalan on Day 9; pre-treatment apraglutide on Days 1, 3, 5, 7 and continued as concomitant treatment on Days 9, 11, and 13.
In both models, mice that received vehicle without any treatment served as controls. Intestinal tissue histology, body weight, survival, and plasma citrulline, a marker of total mucosal mass and intestinal growth, was assessed in both models.

[3] = system: blood cells of Balb/c mice; assay: Cytarabine-induced immunosuppression, blood cell counts in Balb/c mice (Example 5, second experiment); type: in vivo, mouse; parameters: reduction in lymphocytes / Red blood cells, percentage difference from control / Platelets, percentage difference from control / White blood cells, percentage difference from control / Lymphocytes, percentage difference from control / Neutrophils, percentage difference from control: concentration or dose not given beside the values
Description: In a second experiment, apraglutide's effect on the ability of cytarabine to induce immunosuppression was assessed. The experiment included three groups of Balb/c mice: (A) vehicle; (B) cytarabine on Days 5-9; (C) cytarabine on Days 5-9, concomitant apraglutide on Days 5-18. RBC, platelets, WBC, NEU and LYMPH were assessed. A cohort was allowed to survive for 4 weeks to assess the effect of apraglutide on immunosuppression recovery (FIG. 12).

[4] = system: acute gastrointestinal GvHD in BALB/cJ male mice; assay: Acute GvHD mouse model, 8.5 Gy irradiation plus allogeneic bone marrow/spleen cell transplant (Example 1, first experiment); type: in vivo
Description: Mouse #3 (Group A), #13 (Group B) and #20 (Group B) were administered the cells by subcutaneous injection rather than intravenously. Mouse #5 (Group B) and #10 (Group B) received half the cells by intravenous injection and half by subcutaneous injection.
Following sacrifice of the mice, the colon lengths of the mice in Group A and Group B, as well as a control group of BALB/c mice (untreated), were measured. […] Thus, treatment with apraglutide protected the mice in Group A from a reduction in colon length, which is typically attributed to the inflammation caused by acute, gastrointestinal GvHD.
Various histological parameters of the jejunum were also measured, including single cell necrosis levels, necrosis of all crypts, shortening of villi, cryptal hyperplasia (regenerative), cell infiltrate, and cryptal abscess. These histological parameters were graded on a standard histological grading system (1 to 3). […] These indicate that the administration of apraglutide has a protective effective against jejunal mucosal damages induced by irradiation and GvHD.

[5] = system: cytarabine-induced damage in BALB/cJ female mice; details: for polymorphonuclear (PMN) cell count: cytarabine 30 mg/kg twice per day, alone or combined with hGLP-2 or apraglutide, FIG. 20
Description: In a first experiment BALB/cJ female mice were separated into six groups for a dose-response study to assess the pharmacologic effect of increasing doses of apraglutide (0.11, 0.3 and 1.1 mg/kg) administered subcutaneously. Cytarabine was administered intraperitoneally at 30 mg/kg twice per day for 5 days (Day 0 to Day +4). Apraglutide was administered daily for a total of nine days, 4 days before and 5 days during the administration of chemotherapy (Day −4 to Day +4). Apraglutide effect was compared to unmodified hGLP-2 which was administered twice daily from Day −4 to Day +4, at a nominal dose of 0.60 mg/kg and combined with cytarabine.

[6] = system: blood cells of Balb/c mice; assay: Melphalan-induced immunosuppression in Balb/c mice (Example 5, third experiment); type: in vivo, mouse
Description: In a third experiment, the effect of apraglutide on melphalan-induced immunosuppression was assessed (FIG. 13). Three groups of Balb/c mice were included: (A) vehicle; (B) melphalan on Day 9; (C) melphalan on Day 9, apraglutide pre-treatment on Days 1, 3, 5, 7 and continued as co-administration on Days 9, 11, and 13. WBC, NEU and LYMPH were assessed.

[7] = system: acute gastrointestinal GvHD in BALB/cJ male mice; assay: Acute GvHD mouse model, 7.0 Gy irradiation plus allogeneic transplant (Example 1, second experiment); type: in vivo
Text: FIG. 3a-3b is a series of graphs showing colon length and small intestine length in an acute GvHD mouse model following treatment with apraglutide. Data are shown as the mean ±SEM length of intestinal colon. N-5-10/group. Each dot represents data for one mouse.
FIG. 14 is a series of graphs showing that treatment with apraglutide improves animal survival of TBI/BMT treated animals. Kaplan-Meier curves—Animal survival was monitored daily. N=10 at time=0 for each treatment group. […] When comparing to the control group, survival of TBI/BMT was significant different ### p=0.0007. BMT=b one marrow transplant; TBI=total body irradiation.

[8] = system: GvHD-induced intestinal damage in BALB/cJ mice; assay: TBI-induced intestinal damage and allogeneic transplantation in BALB/cJ mice (Example 2, second experiment); type: in vivo, mouse
Description: Intestinal damage indicative of GvHD (histological changes, length, hemorrhage, inflammation), body weight, and survival were assessed.

[9] = system: human leukemia cells (hCD45+) in NOD/SCID mice; details: Day 7; cytarabine Days 0-4; apraglutide or vehicle Days -4 to 4
Description: In a first experiment, cytarabine' s anti-tumor effects were assessed in leukemic NOD/SCID mice (FIG. 11a). Apraglutide or vehicle was administered on Days -4 to 4. Cytarabine or vehicle was administered on Days 0-4. Bone marrow and spleen samples were collected on Day 7 and percentage of hCD45+ cells determined.

[10] = system: fecal microbiota (Bacteroidetes, Firmicutes) of Balb/c mice; details: feces
[11] = melphalan on Day 9, with or without apraglutide
[12] = Day 18 (post-treatment), cytarabine 30 mg/kg Days 5-9, apraglutide 3.3 mg/kg Days 1-18

CCCC[C@H](NC(=O)[C@H](CCC(=O)O)NC(=O)[C@H](CC(=O)O)NC(=O)[C@H](CO)NC(=O)[C@H](Cc1ccccc1)NC(=O)[C@H](CO)NC(=O)CNC(=O)[C@H](CC(=O)O)NC(=O)CNC(=O)[C@@H](N)Cc1c[nH]cn1)C(=O)N[C@H](Cc1ccccc1)C(=O)N[C@H](C(=O)N[C@H](C(=O)N[C@@H](CC(C)C)C(=O)N[C@@H](CC(=O)O)C(=O)N[C@@H](CC(C)C)C(=O)N[C@@H](CC(C)C)C(=O)N[C@@H](C)C(=O)N[C@@H](C)C(=O)N[C@@H](CCCNC(=N)N)C(=O)N[C@@H](CC(=O)O)C(=O)N[C@@H](Cc1ccccc1)C(=O)N[C@H](C(=O)N[C@@H](CC(N)=O)C(=O)N[C@@H](Cc1c[nH]c2ccccc12)C(=O)N[C@@H](CC(C)C)C(=O)N[C@H](C(=O)N[C@@H](CCC(N)=O)C(=O)N[C@H](C(=O)N[C@@H](CCCCN)C(=O)N[C@H](C(=O)N[C@H](C(=O)N[C@@H](CC(=O)O)C(N)=O)C(C)O)C(C)CC)C(C)O)C(C)CC)C(C)CC)C(C)CC)C(C)O (stereo partly drawn) [apraglutide] (H-HGDGSFSDE[Nle][dF][Thr(3ξ)][Ile(3ξ)]LDLLAARDF[Ile(3ξ)]NWL[Ile(3ξ)]Q[Thr(3ξ)]K[Ile(3ξ)][Thr(3ξ)]D-NH2)
engraftment rate in blood, spleen and bone marrow ([1]; apraglutide 3.3 mg/kg Days -6 to 18, CD45 expression): not affected
hCD45+ cells infiltration in the intestinal wall ([1]; apraglutide vs vehicle): no difference
engraftment rate in blood ([1]; at D20 in blood, range): 22.2-47.6%
chemotherapy-induced weight loss ([2]; FIG. 8): attenuated
degenerative intestinal changes (villi and crypt atrophy) caused by cytarabine or melphalan ([2]; apraglutide 3.3 mg/kg co-administration, histology): reduced
overall survival ([2]; vs vehicle-only or chemotherapy-only groups, FIG. 9): improved
weight of duodenum, ileum and jejunum ([2]; with apraglutide): increased in weight
recovery of hematological parameters ([3]; 4 weeks after the end of treatment): did not impact
colon length ([4]; apraglutide 3 mg/kg s.c. every second day Day -9 to +7, 8.5 Gy, vs vehicle group and untreated control mice, FIG. 1): increased colon lengths that were nearly the same as the control mice
overall mean severity score of mucosal degenerative/inflammatory changes in the jejunum ([4]; apraglutide 3 mg/kg s.c., compared with vehicle, histological grading 1 to 3): slightly decreased
mean severity score of the regenerative cryptal hyperplasia ([4]; jejunum, apraglutide 3 mg/kg s.c., compared with vehicle): slightly increased
animal survival ([5]; apraglutide 0.11 mg/kg s.c. daily Day -4 to +4 with cytarabine 30 mg/kg i.p. twice per day Day 0 to +4): 11/16
citrulline concentrations ([5]; apraglutide 0.33 mg/kg and 1.1 mg/kg co-administered with cytarabine, compared to cytarabine alone, FIG. 19): improvement
animal survival ([5]; apraglutide 0.33 mg/kg s.c. daily Day -4 to +4 with cytarabine 30 mg/kg i.p. twice per day Day 0 to +4): 14/16
animal survival ([5]; apraglutide 1.1 mg/kg s.c. daily Day -4 to +4 with cytarabine 30 mg/kg i.p. twice per day Day 0 to +4): 16/16
initial weight loss ([5]; combination with cytarabine, apraglutide 0.11 mg/kg, hGLP-2 0.60 mg/kg twice daily): did not decrease
body weight and survival in animals recovering from cytarabine treatment ([5]; combination with cytarabine, apraglutide 0.11 mg/kg, hGLP-2 0.60 mg/kg twice daily, FIG. 18): a trend towards increased body weight and survival
polymorphonuclear (PMN) cell count [5]: not reversed
impact on cytarabine- or melphalan-induced immunosuppression ([6]; combination with apraglutide): no negative impact
body weight of mice surviving beyond Day 9 ([7]; Group A (apraglutide)): regained body weight
weight loss ([7]; Group A (apraglutide) vs Group B (vehicle)): No significant difference
length of the small intestine ([7]; across the three Groups, FIG. 3): no differences were observed
median survival ([7]; apraglutide 3 mg/kg s.c. every second day Day -9 to +7, 7.0 Gy + transplant): 9 days
mice survived past Day 9 ([7]; apraglutide 3 mg/kg s.c., 7.0 Gy + transplant): 40%
animal survival (Kaplan-Meier, log-rank test) ([7]; apraglutide initiated before TBI/BMT, FIG. 14, p<0.03): significant difference relative to TBI/BMT animals
mice showing an intestinal pathological score of 0 ([7]; macroscopic score 0 least severe to 4 most severe, Group A): four out of out of ten
lymphocyte engraftment ([8]; apraglutide 3.3 mg/kg Days -9 to +7): successfully achieved
mean colon length ([8]; apraglutide 3.3 mg/kg, TBI + allogeneic transplantation): 8.6±0.35 cm
mucosal degenerative/inflammatory changes (post-mortem histological examination) ([8]; apraglutide vs vehicle): less
overall survival ([8]; on Day +9, p=0.0134 vs vehicle): 40%

N[C@@H](Cc1ccc(N(CCCl)CCCl)cc1)C(=O)O [melphalan, Melphalan]
LYMPH vs vehicle [6, 11]: severe decreases
WBC vs vehicle [6, 11]: severe decreases

Nc1ccn([C@@H]2O[C@H](CO)[C@@H](O)[C@@H]2O)c(=O)n1 [Cytarabine only, Cytarabine]
percentage of hCD45 in bone marrow after chemotherapy [9]: 35.5±4%
Lymphocytes, percentage difference from control ([3]; at treatment end): −91%
Neutrophils, percentage difference from control ([3]; at treatment end): −82%
Platelets, percentage difference from control ([3]; at treatment end): −68%
Red blood cells, percentage difference from control ([3]; at treatment end): −23%
White blood cells, percentage difference from control ([3]; at treatment end): −89%
reduction in lymphocytes ([3]; end of the treatment period): 91%
polymorphonuclear (PMN) cell count [5]: depleted
Mean % of taxa at the Phylum level, Bacteroidetes, Day 0 ([10]; Day 0 (pre-treatment)): 16.3%
Mean % of taxa at the Phylum level, Firmicutes, Day 0 ([10]; Day 0 (pre-treatment)): 78.7%
Mean % of taxa at the Phylum level, Bacteroidetes, Day 18 [10, 12]: 48.7%
Mean % of taxa at the Phylum level, Firmicutes, Day 18 [10, 12]: 49.5%
